{
  "source": "patent US20080262043A1",
  "about": "“Solid Crystalline Form of Pantoprazole Free Acid, Salts Derived Therefrom and Process for Their Preparation” (MEDICHEM, S.A., priority 2005, published 2008)",
  "assay": "Solid-state stability of the crystalline form upon drying under vacuum",
  "assay_type": "physicochemical",
  "conditions": "drying under vacuum at approximately 40° C. for approximately 2 hours",
  "data": [
    {"smiles": "COc1ccnc(C[S+]([O-])c2nc3cc(OC(F)F)ccc3[nH]2)c1OC", "note": "(stereo not shown) [Form III pantoprazole free acid, 5-(difluoromethoxy)-2-[[(3,4-dimethoxy-2-pyridinyl)methyl]sulfinyl]-1H-benzimidazole]", "values": [
      {"measurement": "change in the crystalline structure upon drying", "result": "no change in the crystalline structure"}
    ]}
  ]
}
